According to PubChem BioAssay (NCI):
Where “and” joins values, the source holds several entries; their conditions need not be identical. Equal values may be shown once.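 Cultured in 96-well plates, cells were exposed to test compound for 48 hours across five concentrations. The concentration for 50% growth inhibition is given as GI50. TGI: total growth inhibition.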

Key:
Assay in all cases: inhibition of tumour cell growth, NCI panel, 48 h
UO-31 renal = tested on: UO-31 renal
SW-620 colon = tested on: SW-620 colon
CCRF-CEM leukemia = tested on: CCRF-CEM leukemia
HCC-2998 colon = tested on: HCC-2998 colon
CAKI-1 renal = tested on: CAKI-1 renal
KM12 colon = tested on: KM12 colon
RPMI-8226 leukemia = tested on: RPMI-8226 leukemia
SNB-19 CNS = tested on: SNB-19 CNS
IGROV1 ovarian = tested on: IGROV1 ovarian
HS 578T breast = tested on: HS 578T breast

SMILES	TGI (UO-31 renal)	TGI (SW-620 colon) [µM]	TGI (CCRF-CEM leukemia) [µM]	TGI (HCC-2998 colon)	TGI (CAKI-1 renal)	TGI (KM12 colon)	TGI (RPMI-8226 leukemia)	TGI (SNB-19 CNS) [µM]	TGI (IGROV1 ovarian)	GI50 (SW-620 colon) [µM]	GI50 (CCRF-CEM leukemia) [µM]	GI50 (HCC-2998 colon) [µM]	GI50 (KM12 colon) [µM]	GI50 (RPMI-8226 leukemia)	GI50 (SNB-19 CNS) [µM]	GI50 (HS 578T breast) [µM]	TGI (HS 578T breast)	GI50 (IGROV1 ovarian) [µM]	GI50 (UO-31 renal) [µM]	GI50 (CAKI-1 renal) [µM]
S=C(Nc1ccccc1)N(/N=C/C=C/c1ccccc1)c1nnc(-c2ccccc2)c(-c2ccccc2)n1	> 100 µM	> 100	> 100	> 100 µM	> 100 µM	> 100 µM	> 100 µM	> 100	> 100 µM											
COc1ccc(/C=C(/C(=O)N2CCN(c3ccccc3)CC2)c2cc(OC)c(OC)c(OC)c2)cc1O	90.8 µM	> 100	> 100	> 100 µM		> 100 µM	21.4 µM	> 100	> 100 µM	0.468	0.355	0.499	0.414	0.374 µM	0.481	0.712	> 100 µM	0.519		
C=CCCCCC/C=C\[C@H](O)C#CC#C/C=C/CO	> 100 µM	78.5		25.1 µM	86.6 µM	33.7 µM	32.2 µM	> 100	53.7 µM	27		12.5	18.3	14 µM	> 100	45.4	> 100 µM	19.4	61.9	32.6
OC[C@H]1C[C@](O)(c2ccc(Cl)cc2)[C@@H](c2ccc(Cl)cc2)O1	50.3 µM	> 100		52.9 µM	79.3 µM	51 µM	34.9 µM	> 100		27.3		23.8	20.6	13.7 µM	37.8	18	45.6 µM		19.4	27
CN(C)N=Nc1ccc(NC=O)cc1	> 100 µM	> 100	> 100	> 100 µM	> 100 µM	> 100 µM	> 100 µM	> 100	> 100 µM											
O=C(/C=C/c1ccccc1O)c1ccccc1O	> 100 µM	> 100	> 100	> 100 µM	> 100 µM	> 100 µM	> 100 µM	> 100	> 100 µM											
Cc1ccc(Cc2c(=O)[nH]nc3ccccc23)cc1	> 100 µM	> 100	> 100	> 100 µM	> 100 µM	> 100 µM	> 100 µM	> 100	> 100 µM											
CC(C)c1ccc2c(c1)CC[C@@H]1[C@@](C)(C(=O)O)CCC[C@]21C	12 µM	22.8		22.3 µM	12 µM	19.5 µM	6.19 µM	18.6	29 µM	10.2		6.07	5.44	2.47 µM	6.21	3.08	9 µM	5.55	2.76	2.93
Cc1nc2c(-c3cnc(N)nc3)nc(N3CCOCC3)nc2n1C(C)C	0.452 µM and 0.401 µM	> 100		4.27 µM and 24.8 µM	1.42 µM and 2.94 µM	> 10 µM and 21.8 µM	> 3 µM and 10.9 µM	> 100	0.262 µM and 0.286 µM					0.179 µM and 0.123 µM			0.578 µM and 0.199 µM			
COC(=O)C(=Cc1cc(OC)ccc1OC)C(=O)OC	50.9 µM	55.6	61.8	34 µM	43.3 µM	42.8 µM	92.2 µM	> 100	56.9 µM											
Cc1ccc(S(=O)(=O)N(CC(=O)O)c2ccccc2)cc1	> 100 µM	> 100	> 100	> 100 µM	> 100 µM	> 100 µM	> 100 µM	> 100	> 100 µM											
CO/N=C/c1cc(OC)c(OC)c(OC)c1	> 100 µM	> 100	> 100	> 100 µM	> 100 µM	> 100 µM	> 100 µM	> 100	> 100 µM											
O=C(O)C1C2C=CC(O2)C1C(=O)NCc1ccccn1 (stereo not drawn)	> 100 µM	> 100	> 100		> 100 µM	> 100 µM	> 100 µM	> 100	> 100 µM								> 100 µM			
O=C(Nc1nc2ccc(C(F)(F)F)cc2s1)c1cc(Cl)ccc1O	8.79 µM	36.3	96.5	73.6 µM		22 µM	2 µM	> 100	> 100 µM	0.878	0.378	0.781	0.611	0.276 µM	0.629	1.23	> 100 µM	0.621	1.19	
CCOc1ccccc1C=C1c2ccccc2C(=O)c2ccccc21	13.6 µM	41.4	35.5	21.9 µM	6.58 µM	> 100 µM	23.2 µM	> 100	> 100 µM											
C=C1C(=O)OC2CCN3CC=C(COC(=O)C(C)(O)C4(CO4)C1C)C23 (stereo not drawn)	> 100 µM	> 100	> 100	> 100 µM	> 100 µM	> 100 µM		> 100	> 100 µM								> 100 µM			
Cc1ccc(NC(=O)C(=O)C(C(=O)c2ccc3ccccc3c2)C2OC(=O)c3ccccc32)cc1C (stereo not drawn)	27.6 µM	63.7	51.3	18.9 µM	43.7 µM	47.1 µM	37.5 µM	21.3	64 µM											
NC(=Nc1c([N+](=O)[O-])cnc2ccccc12)N1CCOCC1	> 100 µM	> 100	> 100		> 100 µM	> 100 µM	> 100 µM	> 100	> 100 µM								> 100 µM			
COc1cc(C#CC(=O)OC/C=C/c2ccc3c(c2)OCO3)cc(OC)c1OC	37 µM	80.6	49.3	49.2 µM	57 µM	> 100 µM	51.8 µM	> 100									51 µM			
O=C(CCn1[nH]c(=O)c(Cl)c(Cl)c1=O)NO	> 100 µM	> 100	> 100	> 100 µM	> 100 µM	> 100 µM	> 100 µM	> 100	> 100 µM											
